What all share (type): binding
One test concerns the target T1, Sortase B (SrtBΔ30, WT) (Staphylococcus aureus, UniProt Q2FZE3).
T1 construct: gene srtB; SrtBΔ30
As to the kind of experiment: fluorescence spectroscopy quenching (association constant KA); also FRET peptide-cleavage inhibition of the purified enzyme, IC50 […].

Test [1] has as its target T2, Sortase B (SrtBΔ30) (Staphylococcus aureus, UniProt Q2FZE3, N116A).
T2 construct: gene srtB; SrtBΔ30
T2 sequence (Q2FZE3 31-244 N116A): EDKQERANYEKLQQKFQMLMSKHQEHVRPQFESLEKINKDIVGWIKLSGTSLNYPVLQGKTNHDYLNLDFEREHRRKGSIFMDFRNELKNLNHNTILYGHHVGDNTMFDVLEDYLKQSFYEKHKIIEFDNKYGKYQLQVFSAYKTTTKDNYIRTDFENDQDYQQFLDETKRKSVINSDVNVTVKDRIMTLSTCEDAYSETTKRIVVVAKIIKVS
As to the kind of experiment: fluorescence spectroscopy quenching (association constant KA). The text has this: (§1) fluorescence spectroscopy quenching (association constant KA) on Sortase B (SrtBΔ30) | the binding constants (KA) of the ligand with the mutant proteins were lower

Test [2] has as its target T3, Sortase B (SrtBΔ30) (Staphylococcus aureus, UniProt Q2FZE3, R115A).
T3 construct: gene srtB; SrtBΔ30
T3 sequence (Q2FZE3 31-244 R115A): T2 sequence (Q2FZE3 31-244 N116A)
Described as above.
Excerpt: as §1

For test [3], the target named is T4, Sortase B (SrtBΔ30) (Staphylococcus aureus, UniProt Q2FZE3, I182A).
T4 construct: gene srtB; SrtBΔ30
T4 sequence (Q2FZE3 31-244 I182A): T2 sequence (Q2FZE3 31-244 N116A)
Described as above.
Excerpt: as §1

The results in this text go back to PMC6017250, “Novel Inhibitor Discovery of Staphylococcus aureus Sortase B and the Mechanism Confirmation via Molecular Modeling” (Molecules : A Journal of Synthetic Chemistry and Natural …, 2018).

Structures are written as SMILES.

For orientation: Kd means the equilibrium constant for the complex coming apart. Take `c1c2c(cc3c1OCO3)-c1cc3ccc4c(c3c[n+]1CC2)OCO4` [coptisine]: the Kd is 7.35 µM at Sortase B (SrtBΔ30, WT); 10.9 µM on Sortase B (SrtBΔ30) [1]; 12 µM on Sortase B (SrtBΔ30) [2]; 12.8 µM at Sortase B (SrtBΔ30) [3].
